Measured values from patent US20100285959A1, “HERBICIDAL MIXTURES” (priority 2006, published 2010).

What was measured:
corn (ZEAMD) = experiment: Test 25 field trial, postemergence, growth as percent of control; type: in vivo, Zea mays ssp. indentata
Excerpt: (§1) Corn seeds (hybrid ‘Pioneer 31G96 RR’) were planted in mid spring season, 3.8 cm deep in a clay loam soil having 2% organic matter and a pH of 6.6. Plots were 6.1 m long by 3.0 m wide with rows spaced 76 cm apart. Seeds were spaced 15 cm apart within the rows. The field was managed using conventional tillage practices. […] Giant ragweed and Pennsylvania smartweed could only be evaluated 14 days after application. […] Results are the means of the three replicates. This growth inhibition data was converted to results in the form of “plant growth as a percent of control plant growth” using the calculation “100 minus growth inhibition”.
(§2) When this form of Colby's Equation is used, if the observed effects on weeds are less than the expected values, the mixture is synergistic.

giant ragweed (AMBTR) = experiment: as above; type: in vivo, Ambrosia trifida; settings: 14 DAA
Excerpt: as §1, §2

giant foxtail (SETFA) = experiment: as above; type: in vivo, Setaria faberi
Excerpt: as §1, §2

[1] = tested on: common lambsquarters (CHEAL); experiment: as above; type: in vivo, Chenopodium album
Excerpt: as §1, §2

[2] = tested on: Pennsylvania smartweed (POLPY); experiment: as above; type: in vivo, Polygonum pensylvanicum; settings: 14 DAA
Excerpt: as §1, §2

velvetleaf (ABUTH) = experiment: as above; type: in vivo, Abutilon theophrasti
Excerpt: as §1, §2

redroot pigweed (AMARE) [3] = experiment: as above; type: in vivo, Amaranthus retroflexus
Excerpt: as §1, §2

common ragweed (AMBEL) = experiment: as above; type: in vivo, Ambrosia artemisiifolia
Excerpt: as §1, §2

wild buckwheat (POLCO) = experiment: Test 24 growth chamber, postemergence; type: in vivo, Polygonum convolvulus; settings: 17 DAA
Experimental: (§3) Plants were treated postemergence at the 2-4 leaf growth stage, and each treatment was replicated three times. […] Plants were watered as needed. […] Results for barley and wheat are the means across varieties of the three replicates, and results for the weeds are the means of the three replicates.

[4] = tested on: common lambsquarters (CHEAL); experiment: Test 24 growth chamber, postemergence; type: in vivo, Chenopodium album; settings: 17 DAA
Experimental: as §3

field poppy (PAPRH) = experiment: Test 24 growth chamber, postemergence; type: in vivo, Papaver rhoeas; settings: 17 DAA
Experimental: as §3

galium (GALAP) = experiment: Test 24 growth chamber, postemergence; type: in vivo, Galium aparine; settings: 17 DAA
Experimental: as §3

redroot pigweed (AMARE) [5] = experiment: Test 24 growth chamber, postemergence; type: in vivo, Amaranthus retroflexus; settings: 17 DAA
Experimental: as §3

Russian thistle (SASKR) = experiment: Test 24 growth chamber, postemergence; type: in vivo, Salsola kali; settings: 17 DAA
Experimental: as §3

wild mustard (SINAR) = experiment: Test 24 growth chamber, postemergence; type: in vivo, Sinapis arvensis; settings: 17 DAA
Experimental: as §3

kochia (KCHSC) = experiment: Test 24 growth chamber, postemergence; type: in vivo, Kochia scoparia; settings: 17 DAA
Experimental: as §3

common chickweed (STEME) = experiment: Test 24 growth chamber, postemergence; type: in vivo, Stellaria media; settings: 17 DAA
Experimental: as §3

field violet (VIOAR) = experiment: Test 24 growth chamber, postemergence; type: in vivo, Viola arvensis; settings: 17 DAA
Experimental: as §3

wild chamomile (MATCH) = experiment: Test 24 growth chamber, postemergence; type: in vivo, Matricaria chamomilla; settings: 17 DAA
Experimental: as §3

[6] = Nicosulfuron 15 g a.i./ha, 14 DAA
[7] = Nicosulfuron 15 g a.i./ha, 28 DAA
[8] = Nicosulfuron 15 g a.i./ha, 56 DAA
[9] = Diflufenzopyr 30 g a.i./ha, 14 DAA
[10] = Diflufenzopyr 30 g a.i./ha, 28 DAA
[11] = Diflufenzopyr 30 g a.i./ha, 56 DAA
[12] = Diflufenzopyr 45 g a.i./ha, 14 DAA
[13] = Diflufenzopyr 45 g a.i./ha, 28 DAA
[14] = Diflufenzopyr 45 g a.i./ha, 56 DAA

`COc1cc(OC)nc(NC(=O)NS(=O)(=O)c2ncccc2C(=O)N(C)C)n1` [Nicosulfuron] was tested, and the “ZEAMD Obs (percent of control)” value (corn (ZEAMD); [6]) was 100%, the “ZEAMD Obs (percent of control)” value (corn (ZEAMD); [7]) was 100% and the “ZEAMD Obs (percent of control)” value (corn (ZEAMD); [8]) was 100%. For the same compound, the “AMBTR Obs (percent of control)” value (giant ragweed (AMBTR); Nicosulfuron 15 g a.i./ha) was 100%, the “SETFA Obs (percent of control)” value (giant foxtail (SETFA); [6]) was 15% and the “SETFA Obs (percent of control)” value (giant foxtail (SETFA); [7]) was 11%. For the same compound, the “SETFA Obs (percent of control)” value (giant foxtail (SETFA); [8]) was 7%, the “CHEAL Obs (percent of control)” value [1, 6] was 95% and the “CHEAL Obs (percent of control)” value [1, 7] was 72%. For the same compound, the “CHEAL Obs (percent of control)” value [1, 8] was 53%, the “POLPY Obs (percent of control)” value ([2]; Nicosulfuron 15 g a.i./ha) was 28% and the “ABUTH Obs (percent of control)” value (velvetleaf (ABUTH); [6]) was 48%. For the same compound, the “ABUTH Obs (percent of control)” value (velvetleaf (ABUTH); [7]) was 73%, the “ABUTH Obs (percent of control)” value (velvetleaf (ABUTH); [8]) was 100% and the “AMARE Obs (percent of control)” value (redroot pigweed (AMARE) [3]; [6]) was 2%. For the same compound, the “AMARE Obs (percent of control)” value (redroot pigweed (AMARE) [3]; [7]) was 2%, the “AMARE Obs (percent of control)” value (redroot pigweed (AMARE) [3]; [8]) was 33% and the “AMBEL Obs (percent of control)” value (common ragweed (AMBEL); [6]) was 95%. The “AMBEL Obs (percent of control)” value (common ragweed (AMBEL); [7]) was 100% and the “AMBEL Obs (percent of control)” value (common ragweed (AMBEL); [8]) was 100%.
`Nc1c(Cl)c(F)nc(OCC(=O)O)c1Cl` [Fluroxypyr] was tested, and the “POLCO Obs (scale 0 to 100)” value (wild buckwheat (POLCO); Fluroxypyr 62 g a.i./ha) was 68, the “POLCO Obs (scale 0 to 100)” value (wild buckwheat (POLCO); Fluroxypyr 125 g a.i./ha) was 75 and the “CHEAL Obs (scale 0 to 100)” value ([4]; Fluroxypyr 62 g a.i./ha) was 47. The “CHEAL Obs (scale 0 to 100)” value ([4]; Fluroxypyr 125 g a.i./ha) was 58, the “PAPRH Obs (scale 0 to 100)” value (field poppy (PAPRH); Fluroxypyr 62 g a.i./ha) was 65 and the “PAPRH Obs (scale 0 to 100)” value (field poppy (PAPRH); Fluroxypyr 125 g a.i./ha) was 73. For the same compound, the “GALAP Obs (scale 0 to 100)” value (galium (GALAP); Fluroxypyr 62 g a.i./ha) was 80, the “GALAP Obs (scale 0 to 100)” value (galium (GALAP); Fluroxypyr 125 g a.i./ha) was 85 and the “AMARE Obs (scale 0 to 100)” value (redroot pigweed (AMARE) [5]; Fluroxypyr 62 g a.i./ha) was 67. The “AMARE Obs (scale 0 to 100)” value (redroot pigweed (AMARE) [5]; Fluroxypyr 125 g a.i./ha) was 77, the “SASKR Obs (scale 0 to 100)” value (Russian thistle (SASKR); Fluroxypyr 62 g a.i./ha) was 75 and the “SASKR Obs (scale 0 to 100)” value (Russian thistle (SASKR); Fluroxypyr 125 g a.i./ha) was 75. For the same compound, the “SINAR Obs (scale 0 to 100)” value (wild mustard (SINAR); Fluroxypyr 62 g a.i./ha) was 75, the “SINAR Obs (scale 0 to 100)” value (wild mustard (SINAR); Fluroxypyr 125 g a.i./ha) was 75 and the “KCHSC Obs (scale 0 to 100)” value (kochia (KCHSC); Fluroxypyr 62 g a.i./ha) was 68. The “KCHSC Obs (scale 0 to 100)” value (kochia (KCHSC); Fluroxypyr 125 g a.i./ha) was 73, the “STEME Obs (scale 0 to 100)” value (common chickweed (STEME); Fluroxypyr 62 g a.i./ha) was 75 and the “STEME Obs (scale 0 to 100)” value (common chickweed (STEME); Fluroxypyr 125 g a.i./ha) was 83. For the same compound, the “VIOAR Obs (scale 0 to 100)” value (field violet (VIOAR); Fluroxypyr 62 g a.i./ha) was 73, the “VIOAR Obs (scale 0 to 100)” value (field violet (VIOAR); Fluroxypyr 125 g a.i./ha) was 82 and the “MATCH Obs (scale 0 to 100)” value (wild chamomile (MATCH); Fluroxypyr 62 g a.i./ha) was 60. For the same compound, the “MATCH Obs (scale 0 to 100)” value (wild chamomile (MATCH); Fluroxypyr 125 g a.i./ha) was 65.
`C/C(=N\NC(=O)Nc1cc(F)cc(F)c1)c1ncccc1C(=O)O` [Diflufenzopyr] was tested, and the “ZEAMD Obs (percent of control)” value (corn (ZEAMD); [9]) was 100%, the “ZEAMD Obs (percent of control)” value (corn (ZEAMD); [10]) was 83% and the “ZEAMD Obs (percent of control)” value (corn (ZEAMD); [11]) was 100%. For the same compound, the “ZEAMD Obs (percent of control)” value (corn (ZEAMD); [12]) was 100%, the “ZEAMD Obs (percent of control)” value (corn (ZEAMD); [13]) was 88% and the “ZEAMD Obs (percent of control)” value (corn (ZEAMD); [14]) was 100%. The “AMBTR Obs (percent of control)” value (giant ragweed (AMBTR); Diflufenzopyr 45 g a.i./ha) was 75%, the “SETFA Obs (percent of control)” value (giant foxtail (SETFA); [9]) was 40% and the “SETFA Obs (percent of control)” value (giant foxtail (SETFA); [10]) was 60%. For the same compound, the “SETFA Obs (percent of control)” value (giant foxtail (SETFA); [11]) was 68%, the “SETFA Obs (percent of control)” value (giant foxtail (SETFA); [12]) was 40% and the “SETFA Obs (percent of control)” value (giant foxtail (SETFA); [13]) was 58%. For the same compound, the “SETFA Obs (percent of control)” value (giant foxtail (SETFA); [14]) was 60%, the “CHEAL Obs (percent of control)” value [1, 9] was 50% and the “CHEAL Obs (percent of control)” value [1, 10] was 78%. The “CHEAL Obs (percent of control)” value [1, 11] was 10%, the “CHEAL Obs (percent of control)” value [1, 12] was 45% and the “CHEAL Obs (percent of control)” value [1, 13] was 65%. The “CHEAL Obs (percent of control)” value [1, 14] was 0%, the “POLPY Obs (percent of control)” value ([2]; Diflufenzopyr 30 g a.i./ha) was 30% and the “POLPY Obs (percent of control)” value ([2]; Diflufenzopyr 45 g a.i./ha) was 35%. The “ABUTH Obs (percent of control)” value (velvetleaf (ABUTH); [9]) was 28%, the “ABUTH Obs (percent of control)” value (velvetleaf (ABUTH); [10]) was 58% and the “ABUTH Obs (percent of control)” value (velvetleaf (ABUTH); [11]) was 33%. For the same compound, the “ABUTH Obs (percent of control)” value (velvetleaf (ABUTH); [12]) was 15%, the “ABUTH Obs (percent of control)” value (velvetleaf (ABUTH); [13]) was 55% and the “ABUTH Obs (percent of control)” value (velvetleaf (ABUTH); [14]) was 40%. For the same compound, the “AMARE Obs (percent of control)” value (redroot pigweed (AMARE) [3]; [9]) was 48%, the “AMARE Obs (percent of control)” value (redroot pigweed (AMARE) [3]; [10]) was 63% and the “AMARE Obs (percent of control)” value (redroot pigweed (AMARE) [3]; [11]) was 30%. The “AMARE Obs (percent of control)” value (redroot pigweed (AMARE) [3]; [12]) was 47%, the “AMARE Obs (percent of control)” value (redroot pigweed (AMARE) [3]; [13]) was 55% and the “AMARE Obs (percent of control)” value (redroot pigweed (AMARE) [3]; [14]) was 55%. The “AMBEL Obs (percent of control)” value (common ragweed (AMBEL); [9]) was 60%, the “AMBEL Obs (percent of control)” value (common ragweed (AMBEL); [10]) was 73% and the “AMBEL Obs (percent of control)” value (common ragweed (AMBEL); [11]) was 83%. For the same compound, the “AMBEL Obs (percent of control)” value (common ragweed (AMBEL); [12]) was 57%, the “AMBEL Obs (percent of control)” value (common ragweed (AMBEL); [13]) was 60% and the “AMBEL Obs (percent of control)” value (common ragweed (AMBEL); [14]) was 75%.
